These results are taken from ChEMBL document CHEMBL1148648, “Novel 1,3-disubstituted 8-(1-benzyl-1H-pyrazol-4-yl) xanthines: high affinity and selective A2B adenosine receptor antagonists” (J Med Chem, 2006).

Each structure is given as a SMILES string. pKi: −log10 of the molar value.

By pKi is commonly meant the Ki on a negative log10 scale, so that one unit is a factor of ten. Higher therefore signals a small Ki.

One assay deals with T1, Adenosine receptor A2b (Homo sapiens, UniProt P29275).
T1 sequence (P29275 whole entry): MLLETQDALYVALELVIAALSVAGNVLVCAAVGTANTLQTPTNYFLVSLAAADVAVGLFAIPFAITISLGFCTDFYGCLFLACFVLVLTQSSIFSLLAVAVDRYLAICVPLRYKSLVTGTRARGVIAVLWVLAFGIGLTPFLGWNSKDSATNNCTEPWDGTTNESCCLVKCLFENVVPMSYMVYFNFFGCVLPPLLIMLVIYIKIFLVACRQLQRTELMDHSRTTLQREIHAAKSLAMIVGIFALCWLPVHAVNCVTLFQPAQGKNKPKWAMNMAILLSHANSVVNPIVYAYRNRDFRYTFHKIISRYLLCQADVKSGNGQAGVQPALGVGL
The assay can be described thus: Displacement of [3H]ZM241385 from human adenosine A2b receptor expressed in HEK cells. In kind it is cell-based, HEK293. (In general: In a radioligand displacement assay an active substance lowers the binding of a labelled ligand.)

Assay [1] deals with Adenosine receptors; A1 & A2b (Homo sapiens) (UniProt P30542+P29275). The assay can be described thus: Selectivity for human adenosine A2b receptor over adenosine A1 receptor. Type of assay: protein assay.
A further assay deals with Adenosine receptor A2a (Homo sapiens, UniProt P29274). As to the kind of experiment: Displacement of [3H]ZM-241385 from human adenosine A2a receptor expressed in HEK cells. In kind it is cell-based, HEK293.
Another assay deals with T2, Adenosine receptor A1 (Homo sapiens, UniProt P30542).
T2 sequence (P30542 whole entry): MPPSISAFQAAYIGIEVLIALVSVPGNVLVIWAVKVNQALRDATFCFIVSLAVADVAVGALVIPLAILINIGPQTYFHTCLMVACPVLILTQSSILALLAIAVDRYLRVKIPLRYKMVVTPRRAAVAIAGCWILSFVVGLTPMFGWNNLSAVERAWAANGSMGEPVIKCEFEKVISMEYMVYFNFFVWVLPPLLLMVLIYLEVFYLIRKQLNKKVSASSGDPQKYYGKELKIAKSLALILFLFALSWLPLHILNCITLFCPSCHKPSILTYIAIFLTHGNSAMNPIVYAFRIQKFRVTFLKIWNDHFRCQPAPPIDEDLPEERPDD
The assay can be described thus: Displacement of [3H]CPX from human adenosine A1 receptor expressed in CHO cells.

Assay [2] has as its target Adenosine A2 receptor (Homo sapiens) (UniProt P29275+P29274). The assay can be described thus: Selectivity for human adenosine A2b receptor over adenosine A2a receptor. In kind it is protein assay.

Chain of Adenosine receptor A2a (P29274 whole entry): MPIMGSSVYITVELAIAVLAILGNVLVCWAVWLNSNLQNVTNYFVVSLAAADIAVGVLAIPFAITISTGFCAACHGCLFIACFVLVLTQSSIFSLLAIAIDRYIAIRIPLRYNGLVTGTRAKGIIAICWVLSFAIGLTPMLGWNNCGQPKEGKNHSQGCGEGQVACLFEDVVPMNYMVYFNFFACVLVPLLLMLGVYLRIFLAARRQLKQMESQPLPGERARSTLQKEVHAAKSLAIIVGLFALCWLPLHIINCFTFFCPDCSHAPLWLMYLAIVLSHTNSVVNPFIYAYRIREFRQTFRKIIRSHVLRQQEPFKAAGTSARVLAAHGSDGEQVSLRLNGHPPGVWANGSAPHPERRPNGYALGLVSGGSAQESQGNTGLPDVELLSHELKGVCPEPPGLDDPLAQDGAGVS

With `CCCn1c(=O)c2[nH]c(-c3cnn(Cc4cccc(F)c4F)c3)nc2n(CCC)c1=O`, the pKi at Adenosine receptor A2b is 6.62.

As for `CCCn1c(=O)c2nc(-c3cnn(Cc4cccc(OC)c4)c3)[nH]c2n(CCC)c1=O`, the Ratio Ki was 1 in assay [1] and 2 in assay [2]. In addition, the figures for the pKi on Adenosine receptor A2b, at Adenosine receptor A2a and at Adenosine receptor A1 were 7.47, 7.15 and 7.47, respectively.

Take `CC(C)Cn1c(=O)c2nc(-c3cnn(Cc4cccc(F)c4)c3)[nH]c2n(CC(C)C)c1=O`: the Ratio Ki in assay [1] and in assay [2] was 1 in each case.

Consider `CCn1c(=O)c2[nH]c(-c3cnn(Cc4ccccc4)c3)nc2n(CC)c1=O`, for which the pKi at Adenosine receptor A2b was 7.72; on Adenosine receptor A2a it was 6.92; at Adenosine receptor A1, 6.24.

Take `CC(C)Cn1c(=O)c2[nH]c(-c3cnn(Cc4cccc(C(F)(F)F)c4)c3)nc2n(CC(C)C)c1=O`: the pKi on Adenosine receptor A2b is 6.52; at Adenosine receptor A2a it was 5.37; at Adenosine receptor A1, 5.51.

Take `CCCn1c(=O)c2nc(-c3ccnn3-c3ccccc3)[nH]c2n(CCC)c1=O`: the pKi on Adenosine receptor A2b is 5.96.

The compound `CCCc1c(-c2nc3c([nH]2)c(=O)n(CCC)c(=O)n3CCC)cnn1-c1ccccc1` gave a pKi on Adenosine receptor A2b of under 5.18.

Take `CC(C)Cn1c(=O)c2[nH]c(-c3cnn(Cc4cccc(F)c4)c3)nc2n(CC(C)C)c1=O`: the values for the pKi on Adenosine receptor A2b, at Adenosine receptor A2a and on Adenosine receptor A1 were 6.00, 5.89 and 6.08, respectively.

For the compound `CCCn1c(=O)c2nc(-c3cnn(Cc4ccccc4F)c3)[nH]c2n(CCC)c1=O`, the results for the Ratio Ki in assay [1] and in assay [2] were 0.6 and 2, respectively.

`CCCn1c(=O)c2[nH]c(-c3cnn(Cc4ccc(C)cc4)c3)nc2n(CCC)c1=O`: the pKi was 7.40 at Adenosine receptor A2b, 7.10 on Adenosine receptor A2a and 7.42 on Adenosine receptor A1.

On to `CCCn1c(=O)c2nc(-c3cnn(Cc4ccc(F)cc4)c3)[nH]c2n(CCC)c1=O`, for which the Ratio Ki in assay [1] is 1; in assay [2], 5.

Regarding `CCCn1c(=O)c2nc(-c3cnn(Cc4ccc(C)cc4)c3)[nH]c2n(CCC)c1=O`, the Ratio Ki in assay [1] was 1; in assay [2] it was 2.

At Adenosine receptor A2b, `CCCn1c(=O)c2nc(-c3cnn(Cc4ccc(Cl)c(C(F)(F)F)c4)c3)[nH]c2n(CCC)c1=O` gave a negative-log Ki (pKi) of 6.70.

Consider `CCCn1c(=O)c2nc(-c3cnn(-c4ccccc4)c3C(F)(F)F)[nH]c2n(CCC)c1=O`, for which the pKi at Adenosine receptor A2b was under 5.18.

As for `CCCn1c(=O)c2[nH]c(-c3cnn(Cc4cccc(C)c4)c3)nc2n(CCC)c1=O`, the negative logarithm of the Ki (pKi) at Adenosine receptor A2b is 7.44; on Adenosine receptor A2a, 7.18; at Adenosine receptor A1 it was 7.32.

Regarding `CCCn1c(=O)c2nc(-c3cnn(Cc4ccccc4Cl)c3)[nH]c2n(CCC)c1=O`, the Ratio Ki in assay [1] is 3. The results for the pKi at Adenosine receptor A2b, on Adenosine receptor A2a and at Adenosine receptor A1 were 7.70, 7.31 and 7.23, respectively.

Take `CCCn1c(=O)c2nc(-c3cnn(Cc4c(F)cccc4F)c3)[nH]c2n(CCC)c1=O`: on Adenosine receptor A2b, the pKi is 6.41.

On to `CCCn1c(=O)c2[nH]c(-c3cnn(-c4ccccc4)c3)nc2n(CCC)c1=O`, for which the negative-log Ki (pKi) at Adenosine receptor A2b was 6.51; at Adenosine receptor A2a, 6.25; at Adenosine receptor A1, 6.11.

With `CCCn1c(=O)c2nc(-c3cnn(Cc4ccccc4C)c3)[nH]c2n(CCC)c1=O`, the figures for the Ratio Ki in assay [1] and in assay [2] were 0.6 and 2, respectively.

On to `CCCn1c(=O)c2nc(-c3cnn(Cc4ccccc4OC)c3)[nH]c2n(CCC)c1=O`, for which the Ratio Ki in assay [1] came to 2; in assay [2], 4.

On to `CC(C)Cn1c(=O)c2nc(-c3cnn(Cc4cccc(C(F)(F)F)c4)c3)[nH]c2n(CC(C)C)c1=O`, for which the Ratio Ki in assay [1] worked out at 10; in assay [2], 14.

In the case of `CCCn1c(=O)c2[nH]c(-c3cnn(Cc4cc(C(F)(F)F)cc(C(F)(F)F)c4)c3)nc2n(CCC)c1=O`, at Adenosine receptor A2b, the pKi is 6.46.

Turning to `CCCn1c(=O)c2nc(-c3cnn(Cc4cccc(C)c4F)c3)[nH]c2n(CCC)c1=O`, the Ratio Ki was 9 in assay [1] and 10 in assay [2].

On to `CCCn1c(=O)c2[nH]c(-c3cc(C)nn3C)nc2n(CCC)c1=O`, for which the pKi on Adenosine receptor A2b was 5.43.

In the case of `CCCn1c(=O)c2[nH]c(-c3cnn(Cc4cccc(C)c4F)c3)nc2n(CCC)c1=O`, the negative-log Ki (pKi) is 7.36 on Adenosine receptor A2b, 6.34 at Adenosine receptor A2a and 6.41 on Adenosine receptor A1.

Take `CC(C)Cn1c(=O)c2[nH]c(-c3cnn(Cc4ccccc4)c3)nc2n(CC(C)C)c1=O`: the negative-log Ki (pKi) was 5.90 at Adenosine receptor A2b, 5.96 at Adenosine receptor A2a and 6.21 at Adenosine receptor A1.

With `CCCn1c(=O)c2nc(-c3cnn(Cc4ccc(OC)c(C(F)(F)F)c4)c3)[nH]c2n(CCC)c1=O`, the negative-log Ki (pKi) on Adenosine receptor A2b is 6.39.

Turning to `CCCn1c(=O)c2[nH]c(-c3cnn(Cc4ccccc4C(F)(F)F)c3)nc2n(CCC)c1=O`, the negative logarithm of the Ki (pKi) was 7.43 at Adenosine receptor A2b, 6.64 at Adenosine receptor A2a and 7.36 at Adenosine receptor A1.

In the case of `CCCn1c(=O)c2nc(-n3cccn3)[nH]c2n(CCC)c1=O`, at Adenosine receptor A2b, the pKi was under 5.24.

For the compound `CC(C)Cn1c(=O)c2nc(-c3cnn(Cc4ccccc4)c3)[nH]c2n(CC(C)C)c1=O`, the values for the Ratio Ki in assay [1] and in assay [2] were 0.5 and 1, respectively.

As for `CCCn1c(=O)c2[nH]c(-c3cnn(Cc4ccc(OC)cc4)c3)nc2n(CCC)c1=O`, the values for the pKi on Adenosine receptor A2b, at Adenosine receptor A2a and at Adenosine receptor A1 were 7.43, 7.21 and 7.15, respectively.

`CCCn1c(=O)c2[nH]c(-c3cnn(Cc4ccc(F)c(C(F)(F)F)c4)c3)nc2n(CCC)c1=O` showed a negative logarithm of the Ki (pKi) on Adenosine receptor A2b of 6.19.

On to `CCCn1c(=O)c2[nH]c(-c3cnn(Cc4ccccc4OC)c3)nc2n(CCC)c1=O`, for which the pKi was 7.43 on Adenosine receptor A2b, 6.85 at Adenosine receptor A2a and 7.23 at Adenosine receptor A1.

`CCCn1c(=O)c2[nH]c(-c3cnn(Cc4ccc(F)cc4)c3)nc2n(CCC)c1=O`: the pKi at Adenosine receptor A2b was 7.66; on Adenosine receptor A2a it was 6.92; at Adenosine receptor A1, 7.64.

Regarding `CCCn1c(=O)c2nc(-c3cnn(-c4ccccc4)c3C)[nH]c2n(CCC)c1=O`, on Adenosine receptor A2b, the negative logarithm of the Ki (pKi) is under 5.39.

`CCn1c(=O)c2nc(-c3cnn(Cc4ccccc4)c3)[nH]c2n(CC)c1=O`: the Ratio Ki in assay [1] was determined as 30; in assay [2], 6.

In the case of `CCCn1c(=O)c2nc(-c3cnn(Cc4ccccc4C(F)(F)F)c3)[nH]c2n(CCC)c1=O`, the Ratio Ki amounted to 1 in assay [1] and 6 in assay [2].

As for `CCCn1c(=O)c2nc(-c3cnn(Cc4cc(Cl)ccc4Cl)c3)[nH]c2n(CCC)c1=O`, the Ratio Ki in assay [1] came to 6; in assay [2], 2.

In the case of `CCCn1c(=O)c2[nH]c(-c3cnn(-c4ccc(Cl)cc4)c3C(F)(F)F)nc2n(CCC)c1=O`, on Adenosine receptor A2b, the pKi is under 5.18.

For the compound `CCCn1c(=O)c2c(nc(-n3cccn3)n2Cc2ccccc2)n(CCC)c1=O`, the negative-log Ki (pKi) at Adenosine receptor A2b is under 5.24.

With `CCCCn1c(=O)c2[nH]c(-c3cnn(Cc4ccccc4)c3)nc2n(CCCC)c1=O`, the pKi on Adenosine receptor A2b is 6.01; at Adenosine receptor A2a it was 6.05; at Adenosine receptor A1 it was 5.85.

`CCCn1c(=O)[nH]c(=O)c2[nH]cnc21` [ENPROFYLLINE] had a negative logarithm of the Ki (pKi) on Adenosine receptor A1 of 4.38.

With `CCCn1c(=O)c2[nH]c(-c3cnn(Cc4cc(Cl)ccc4Cl)c3)nc2n(CCC)c1=O`, the results for the pKi on Adenosine receptor A2b, at Adenosine receptor A2a and at Adenosine receptor A1 were 7.54, 7.15 and 6.72, respectively.

For the compound `CCCn1c(=O)c2[nH]c(-c3cnn(Cc4ccccc4F)c3)nc2n(CCC)c1=O`, the figures for the negative-log Ki (pKi) at Adenosine receptor A2b, on Adenosine receptor A2a and on Adenosine receptor A1 were 7.55, 7.22 and 7.72, respectively.

On to `CCCn1c(=O)c2[nH]c(-c3cnn(Cc4cc(F)ccc4Cl)c3)nc2n(CCC)c1=O`, for which the negative-log Ki (pKi) on Adenosine receptor A2b is 5.32.

For `CCCn1c(=O)c2nc(-c3cc(C)nn3CC)[nH]c2n(CCC)c1=O`, the pKi at Adenosine receptor A2b is 5.68.

Turning to `CCCn1c(=O)c2nc(-c3cnn(Cc4ccc(F)cc4F)c3)[nH]c2n(CCC)c1=O`, at Adenosine receptor A2b, the negative logarithm of the Ki (pKi) was 6.15.

Compound `CCCn1c(=O)c2nc(-c3cnn(Cc4c(F)cc(F)cc4F)c3)[nH]c2n(CCC)c1=O` had a pKi on Adenosine receptor A2b of 6.19.

`CCCn1c(=O)c2nc(-c3cnn(Cc4cccc(C)c4)c3)[nH]c2n(CCC)c1=O`: the results for the Ratio Ki in assay [1] and in assay [2] were 1 and 2, respectively.

For `CCCCn1c(=O)c2nc(-c3cnn(Cc4ccccc4)c3)[nH]c2n(CCCC)c1=O`, the Ratio Ki in assay [1] and in assay [2] was 1 in each case.

Regarding `CCCn1c(=O)c2nc(-c3cnn(-c4ccccc4)c3)[nH]c2n(CCC)c1=O`, the Ratio Ki in assay [1] and in assay [2] was 2 each time.

With `CCCn1c(=O)c2nc(-c3cnn(Cc4ccc(OC)cc4)c3)[nH]c2n(CCC)c1=O`, the Ratio Ki in assay [1] stood at 2; in assay [2] it was 1.

With `CCCn1c(=O)c2[nH]c(-c3cnn(Cc4ccccc4C)c3)nc2n(CCC)c1=O`, the pKi was 7.48 at Adenosine receptor A2b, 7.29 at Adenosine receptor A2a and 7.66 at Adenosine receptor A1.

`CCCn1c(=O)c2[nH]c(-c3cnn(Cc4cc(C(F)(F)F)cc(Cl)c4F)c3)nc2n(CCC)c1=O` showed a pKi on Adenosine receptor A2b of 6.44.

At Adenosine receptor A2b, `CCCn1c(=O)c2c(nc(-n3cc(I)cn3)n2Cc2ccccc2)n(CCC)c1=O` showed a negative logarithm of the Ki (pKi) of under 5.24.
